Test results: patent publication US4110327A, “2,3 Diketo-piperazinocarbonylamino alkanoic acids and derivatives” (Toyama Chemical Co., Ltd., priority 1974, dated 1978)
Values after ≈ are worked out from the molar mass of the structure shown.

Columns and labels:
Type in all cases: cell-based
Escherichia coli NIHJ = test: MIC against standard strain, plate method; details: unit assumed
Procedure, shortened: (§1)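 MIC values come from the plate method on heart infusion agar at pH 7.4, with each plate receiving 10^4 cells from a 10^6 cells/ml suspension.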

Klebsiella pneumoniae [1] = test: MIC against standard strain, plate method; details: unit assumed
Procedure, shortened: as §1

Proteus vulgaris 3027 = test: MIC against standard strain, plate method; details: Proteus vulgaris 3027, standard strain; unit assumed
Procedure, shortened: as §1

[2] = tested on: Pseudomonas aeruginosa I.F.O.; test: MIC against standard strain, plate method; details: unit assumed
Procedure, shortened: as §1

[3] = tested on: Staphylococcus aureus 209p; test: MIC against standard strain, plate method; details: unit assumed
Procedure, shortened: as §1

Staphylococcus aureus = test: MIC against clinical isolates; details: unit assumed
Escherichia coli = test: MIC against clinical isolates; details: unit assumed
Pseudomonas aeruginosa = test: MIC against clinical isolates; details: unit assumed
Klebsiella pneumoniae [4] = test: MIC against clinical isolates; details: unit assumed
Proteus mirabilis = test: MIC against clinical isolates; details: clinical isolate, unit assumed
Proteus morganii = test: MIC against clinical isolates; details: clinical isolate, unit assumed
Proteus vulgaris = test: MIC against clinical isolates; details: clinical isolate, unit assumed
Proteus rettgeri = test: MIC against clinical isolates; details: clinical isolate, unit assumed
Shigella flexneri = test: MIC against clinical isolates; details: unit assumed
Protocol: (§2) The minimum inhibitory concentrations (MIC) was determined by the plate method disclosed in "Chemotherapy" (Japan), Vol. 16, (1968), pages 98 - 99. The culture medium used was a Heart infusion agar (pH 7.4). The number of the cells per plate used in the inoculum as 10^4 (10^6 cells/ml).
(§3) MIC was determined in the same manner as in the preceding paragraph (1).

Shigella sonnei = test: MIC against clinical isolates; details: clinical isolate JS 11232; unit assumed
Protocol: as §2, §3

Salmonella typhi = test: MIC against clinical isolates; details: unit assumed
Salmonella typhi-murium = test: MIC against clinical isolates; details: unit assumed

CCN1CCN(C(=O)NC(C(=O)NC2C(=O)N3C(C(=O)O)=C(COC(C)=O)CSC23)c2ccccc2)C(=O)C1=O (centres unmarked) [compound 61]
MIC (Escherichia coli NIHJ): < 0.79 µg/mL | MIC (Klebsiella pneumoniae [1]): 3.13 µg/mL (≈ 5.46 µM) | MIC (Proteus vulgaris 3027): 3.13 µg/mL (≈ 5.46 µM) | MIC [2]: 25 µg/mL (≈ 43.6 µM) | MIC [3]: < 0.79 µg/mL | MIC (Staphylococcus aureus; clinical isolate F-1): 3.13 µg/mL (≈ 5.46 µM) | MIC (Staphylococcus aureus; clinical isolate F-2): 1.56 µg/mL (≈ 2.72 µM) | MIC (Staphylococcus aureus; clinical isolate F-3): 1.56 µg/mL (≈ 2.72 µM) | MIC (Staphylococcus aureus; clinical isolate F-4): 3.13 µg/mL (≈ 5.46 µM) | MIC (Staphylococcus aureus; clinical isolate F-5): 50 µg/mL (≈ 87.2 µM) | MIC (Staphylococcus aureus; clinical isolate MS 8588): 1.56 µg/mL (≈ 2.72 µM) | MIC (Staphylococcus aureus; clinical isolate MS 8596): 1.56 µg/mL (≈ 2.72 µM) | MIC (Staphylococcus aureus; clinical isolate MS 8619): 1.56 µg/mL (≈ 2.72 µM) | MIC (Staphylococcus aureus; clinical isolate MS 8684): 1.56 µg/mL (≈ 2.72 µM) | MIC (Staphylococcus aureus; clinical isolate MS 8713): 1.56 µg/mL (≈ 2.72 µM) | MIC (Escherichia coli; clinical isolate GN 3435): 3.13 µg/mL (≈ 5.46 µM) | MIC (Escherichia coli; clinical isolate GN 3452): 6.25 µg/mL (≈ 10.9 µM) | MIC (Escherichia coli; clinical isolate GN 3465): 50 µg/mL (≈ 87.2 µM) | MIC (Escherichia coli; clinical isolate GN 3481): 3.13 µg/mL (≈ 5.46 µM) | MIC (Escherichia coli; clinical isolate GN 3611): 200 µg/mL (≈ 349 µM) | MIC (Escherichia coli; clinical isolate K-1): 3.13 µg/mL (≈ 5.46 µM) | MIC (Escherichia coli; clinical isolate K-2): 6.25 µg/mL (≈ 10.9 µM) | MIC (Escherichia coli; clinical isolate K-3): 100 µg/mL (≈ 174 µM) | MIC (Escherichia coli; clinical isolate K-4): 6.25 µg/mL (≈ 10.9 µM) | MIC (Pseudomonas aeruginosa; clinical isolate GN 82): 25 µg/mL (≈ 43.6 µM) | MIC (Pseudomonas aeruginosa; clinical isolate GN 163): 25 µg/mL (≈ 43.6 µM) | MIC (Pseudomonas aeruginosa; clinical isolate GN 221): 6.25 µg/mL (≈ 10.9 µM) | MIC (Pseudomonas aeruginosa; clinical isolate GN 244): 25 µg/mL (≈ 43.6 µM) | MIC (Pseudomonas aeruginosa; clinical isolate GN 376): 12.5 µg/mL (≈ 21.8 µM) | MIC (Pseudomonas aeruginosa; clinical isolate GN 383): 12.5 µg/mL (≈ 21.8 µM) | MIC (Pseudomonas aeruginosa; clinical isolate GN 1035): 100 µg/mL (≈ 174 µM) | MIC (Pseudomonas aeruginosa; clinical isolate GN 1091): 25 µg/mL (≈ 43.6 µM) | MIC (Pseudomonas aeruginosa; clinical isolate GN 2565): 50 µg/mL (≈ 87.2 µM) | MIC (Pseudomonas aeruginosa; clinical isolate GN 2987): 25 µg/mL (≈ 43.6 µM) | MIC (Pseudomonas aeruginosa; clinical isolate S-1): 50 µg/mL (≈ 87.2 µM) | MIC (Pseudomonas aeruginosa; clinical isolate S-2): 50 µg/mL (≈ 87.2 µM) | MIC (Pseudomonas aeruginosa; clinical isolate S-3): 50 µg/mL (≈ 87.2 µM) | MIC (Pseudomonas aeruginosa; clinical isolate S-4): 50 µg/mL (≈ 87.2 µM) | MIC (Klebsiella pneumoniae [4]; clinical isolate GN 917): 6.25 µg/mL (≈ 10.9 µM) | MIC (Klebsiella pneumoniae [4]; clinical isolate GN 4081): 12.5 µg/mL (≈ 21.8 µM) | MIC (Klebsiella pneumoniae [4]; clinical isolate GN 4117): 12.5 µg/mL (≈ 21.8 µM) | MIC (Proteus mirabilis): 1.56 µg/mL (≈ 2.72 µM) | MIC (Proteus morganii): 1.56 µg/mL (≈ 2.72 µM) | MIC (Proteus vulgaris): 0.8 µg/mL (≈ 1.39 µM) | MIC (Proteus rettgeri): 3.13 µg/mL (≈ 5.46 µM)

CCCCCCN1CCN(C(=O)N[C@@H](C(=O)N[C@@H]2C(=O)N3[C@@H]2SC(C)(C)[C@@H]3C(=O)O)c2ccccc2)C(=O)C1 [compound 13]
MIC (Escherichia coli NIHJ): < 1.57 µg/mL | MIC (Klebsiella pneumoniae [1]): < 1.57 µg/mL | MIC (Proteus vulgaris 3027): < 1.57 µg/mL | MIC [2]: 25 µg/mL (≈ 44.7 µM) | MIC [3]: < 1.57 µg/mL | MIC (Staphylococcus aureus; clinical isolate F-1): 12.5 µg/mL (≈ 22.3 µM) | MIC (Staphylococcus aureus; clinical isolate F-2): 1.57 µg/mL (≈ 2.81 µM) | MIC (Staphylococcus aureus; clinical isolate F-5): 200 µg/mL (≈ 357 µM) | MIC (Staphylococcus aureus; clinical isolate MS 8619): 0.79 µg/mL (≈ 1.41 µM) | MIC (Escherichia coli; clinical isolate GN 3465): 25 µg/mL (≈ 44.7 µM) | MIC (Escherichia coli; clinical isolate K-3): 100 µg/mL (≈ 179 µM) | MIC (Pseudomonas aeruginosa; clinical isolate GN 82): 50 µg/mL (≈ 89.3 µM) | MIC (Pseudomonas aeruginosa; clinical isolate GN 163): 25 µg/mL (≈ 44.7 µM) | MIC (Pseudomonas aeruginosa; clinical isolate GN 221): 50 µg/mL (≈ 89.3 µM) | MIC (Pseudomonas aeruginosa; clinical isolate GN 376): 50 µg/mL (≈ 89.3 µM) | MIC (Pseudomonas aeruginosa; clinical isolate GN 383): 50 µg/mL (≈ 89.3 µM) | MIC (Pseudomonas aeruginosa; clinical isolate GN 1035): 50 µg/mL (≈ 89.3 µM) | MIC (Pseudomonas aeruginosa; clinical isolate GN 1091): 25 µg/mL (≈ 44.7 µM) | MIC (Pseudomonas aeruginosa; clinical isolate GN 2565): 50 µg/mL (≈ 89.3 µM) | MIC (Pseudomonas aeruginosa; clinical isolate GN 2987): 12.5 µg/mL (≈ 22.3 µM) | MIC (Pseudomonas aeruginosa; clinical isolate GN (number not given; Table 5-3)): 50 µg/mL (≈ 89.3 µM) | MIC (Pseudomonas aeruginosa; clinical isolate S-1): 50 µg/mL (≈ 89.3 µM) | MIC (Pseudomonas aeruginosa; clinical isolate S-2): 50 µg/mL (≈ 89.3 µM) | MIC (Pseudomonas aeruginosa; clinical isolate S-3): 100 µg/mL (≈ 179 µM) | MIC (Pseudomonas aeruginosa; clinical isolate S-4): 50 µg/mL (≈ 89.3 µM) | MIC (Klebsiella pneumoniae [4]; clinical isolate GN 917): 12.5 µg/mL (≈ 22.3 µM) | MIC (Klebsiella pneumoniae [4]; clinical isolate GN 4081): 25 µg/mL (≈ 44.7 µM) | MIC (Klebsiella pneumoniae [4]; clinical isolate GN 4117): 25 µg/mL (≈ 44.7 µM) | MIC (Shigella flexneri; clinical isolate JS 11215): 12.5 µg/mL (≈ 22.3 µM) | MIC (Shigella flexneri; clinical isolate JS 11839): 1.57 µg/mL (≈ 2.81 µM) | MIC (Shigella sonnei): 12.5 µg/mL (≈ 22.3 µM) | MIC (Salmonella typhi; clinical isolate SL 819): 6.25 µg/mL (≈ 11.2 µM) | MIC (Salmonella typhi; clinical isolate SL 2169): 3.13 µg/mL (≈ 5.59 µM) | MIC (Salmonella typhi-murium; clinical isolate SL 858): 0.79 µg/mL (≈ 1.41 µM) | MIC (Salmonella typhi-murium; clinical isolate SL 2136): 200 µg/mL (≈ 357 µM)

CN1CCN(C(=O)NC(C(=O)NC2C(=O)N3C(C(=O)O)=C(CSc4nnnn4C)CSC23)c2ccccc2)C(=O)C1=O (single isomer, unassigned) [compound 63]
MIC (Escherichia coli NIHJ): < 0.79 µg/mL | MIC (Klebsiella pneumoniae [1]): < 0.79 µg/mL | MIC (Proteus vulgaris 3027): 1.57 µg/mL (≈ 2.55 µM) | MIC [2]: 25 µg/mL (≈ 40.6 µM) | MIC [3]: < 0.79 µg/mL | MIC (Staphylococcus aureus; clinical isolate F-1): 3.13 µg/mL (≈ 5.08 µM) | MIC (Staphylococcus aureus; clinical isolate F-2): 0.78 µg/mL (≈ 1.27 µM) | MIC (Staphylococcus aureus; clinical isolate F-3): 1.56 µg/mL (≈ 2.53 µM) | MIC (Staphylococcus aureus; clinical isolate F-4): 1.56 µg/mL (≈ 2.53 µM) | MIC (Staphylococcus aureus; clinical isolate F-5): 12.5 µg/mL (≈ 20.3 µM) | MIC (Staphylococcus aureus; clinical isolate MS 8588): 1.56 µg/mL (≈ 2.53 µM) | MIC (Staphylococcus aureus; clinical isolate MS 8596): 1.56 µg/mL (≈ 2.53 µM) | MIC (Staphylococcus aureus; clinical isolate MS 8619): 0.78 µg/mL (≈ 1.27 µM) | MIC (Staphylococcus aureus; clinical isolate MS 8684): 1.56 µg/mL (≈ 2.53 µM) | MIC (Staphylococcus aureus; clinical isolate MS 8713): 1.56 µg/mL (≈ 2.53 µM) | MIC (Escherichia coli; clinical isolate GN 3435): 3.13 µg/mL (≈ 5.08 µM) | MIC (Escherichia coli; clinical isolate GN 3452): 12.5 µg/mL (≈ 20.3 µM) | MIC (Escherichia coli; clinical isolate GN 3465): 25 µg/mL (≈ 40.6 µM) | MIC (Escherichia coli; clinical isolate GN 3481): 3.13 µg/mL (≈ 5.08 µM) | MIC (Escherichia coli; clinical isolate GN 3611): 100 µg/mL (≈ 162 µM) | MIC (Escherichia coli; clinical isolate K-1): 3.13 µg/mL (≈ 5.08 µM) | MIC (Escherichia coli; clinical isolate K-2): 6.25 µg/mL (≈ 10.2 µM) | MIC (Escherichia coli; clinical isolate K-3): 50 µg/mL (≈ 81.2 µM) | MIC (Escherichia coli; clinical isolate K-4): 6.25 µg/mL (≈ 10.2 µM) | MIC (Pseudomonas aeruginosa; clinical isolate GN 82): 50 µg/mL (≈ 81.2 µM) | MIC (Pseudomonas aeruginosa; clinical isolate GN 163): 25 µg/mL (≈ 40.6 µM) | MIC (Pseudomonas aeruginosa; clinical isolate GN 221): 25 µg/mL (≈ 40.6 µM) | MIC (Pseudomonas aeruginosa; clinical isolate GN 244): 50 µg/mL (≈ 81.2 µM) | MIC (Pseudomonas aeruginosa; clinical isolate GN 376): 50 µg/mL (≈ 81.2 µM) | MIC (Pseudomonas aeruginosa; clinical isolate GN 383): 25 µg/mL (≈ 40.6 µM) | MIC (Pseudomonas aeruginosa; clinical isolate GN 1035): 100 µg/mL (≈ 162 µM) | MIC (Pseudomonas aeruginosa; clinical isolate GN 1091): 50 µg/mL (≈ 81.2 µM) | MIC (Pseudomonas aeruginosa; clinical isolate GN 2565): 50 µg/mL (≈ 81.2 µM) | MIC (Pseudomonas aeruginosa; clinical isolate GN 2987): 25 µg/mL (≈ 40.6 µM) | MIC (Pseudomonas aeruginosa; clinical isolate S-1): 100 µg/mL (≈ 162 µM) | MIC (Pseudomonas aeruginosa; clinical isolate S-2): 100 µg/mL (≈ 162 µM) | MIC (Pseudomonas aeruginosa; clinical isolate S-3): 100 µg/mL (≈ 162 µM) | MIC (Pseudomonas aeruginosa; clinical isolate S-4): 100 µg/mL (≈ 162 µM) | MIC (Klebsiella pneumoniae [4]; clinical isolate GN 917): 3.13 µg/mL (≈ 5.08 µM) | MIC (Klebsiella pneumoniae [4]; clinical isolate GN 4081): 6.25 µg/mL (≈ 10.2 µM) | MIC (Klebsiella pneumoniae [4]; clinical isolate GN 4117): 6.25 µg/mL (≈ 10.2 µM) | MIC (Proteus mirabilis): 3.13 µg/mL (≈ 5.08 µM) | MIC (Proteus morganii): 3.13 µg/mL (≈ 5.08 µM) | MIC (Proteus vulgaris): 1.56 µg/mL (≈ 2.53 µM) | MIC (Proteus rettgeri): 3.13 µg/mL (≈ 5.08 µM)
